Data taken from patent US10760110B2, “Antibiotic testing and screening system” (priority 2017, dated 2020).
In brackets after ≈: the same amount, converted by molar mass. Like-named read-outs stand apart in the source and are kept apart here.

What was measured:
[1] = tested on: K. pneumoniae NVT1001 ΔramRΔompK35/36 mutant and its revertants; experiment: Etest MIC, ΔramRΔompK35/36 mutant and its revertants (Table 7); assay type: cell-based; conditions: Klebsiella pneumoniae
[2] = tested on: K. pneumoniae NVT1001 and its ΔompK35/36 and/or ΔramR mutants; experiment: Etest MIC, OmpK35/36 loss and AcrAB-TolC overexpression (ΔramR) strains (Table 6); assay type: cell-based, Klebsiella pneumoniae; conditions: Klebsiella pneumoniae
Outline: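 Etest strips per kit instructions; off-scale intermediate readings rounded upward to the nearest two-fold concentration. Broth microdilution (CLSI) for ceftazidime, cefotaxime only. Breakpoints: CLSI 2017 generally, CLSI 2015 for cephalothin, EUCAST 2017 for moxifloxacin.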

[3] = ΔramRΔompK35/36::ompK35/36 revertant
[4] = ΔramRΔompK35/36::ompK35 revertant
[5] = ΔramRΔompK35/36::ompK36 revertant
[6] = ΔramRΔompK35/36::ramR revertant
[7] = ΔramRΔompK35/36::ramR::ompK35/36 revertant
[8] = ΔramRΔompK35/36::ramR::ompK35 revertant
[9] = ΔramRΔompK35/36::ramR::ompK36 revertant
[10] = ΔramRΔ35/36, ΔramRΔompK35/36 mutant

| SMILES | MIC [1, 3] [µg/mL] | MIC [1, 4] [µg/mL] | MIC [1, 5] [µg/mL] | MIC [1, 6] [µg/mL] | MIC [1, 7] [µg/mL] | MIC [1, 8] [µg/mL] | MIC [1, 9] [µg/mL] | MIC ([1]; ΔramRΔompK35/36 mutant) [µg/mL] | MIC ([2]; WT, NVT1001, read-out: MIC) [µg/mL] | MIC ([2]; Δ35, ΔompK35 mutant) [µg/mL] | MIC ([2]; Δ35/36, ΔompK35/36 mutant) [µg/mL] | MIC ([2]; Δ36, ΔompK36 mutant) [µg/mL] | MIC ([2]; ΔramR mutant) [µg/mL] | MIC ([2]; ΔramRΔ35, ΔramRΔompK35 mutant) [µg/mL] | MIC [2, 10] [µg/mL] | MIC ([2]; ΔramRΔ36, ΔramRΔompK36 mutant) [µg/mL] |
| --- | --- | --- | --- | --- | --- | --- | --- | --- | --- | --- | --- | --- | --- | --- | --- | --- |
| CCn1cc(C(=O)O)c(=O)c2ccc(C)nc21 [Nalidixic acid, nalidixic acid] | 64 | 32 | 64 | 8 | 8 | 8 | 8 | 32 | 4 (≈ 17.2 µM) | 8 (≈ 34.4 µM) | 8 (≈ 34.4 µM) | 4 (≈ 17.2 µM) | 32 (≈ 138 µM) | 64 (≈ 276 µM) | 32 (≈ 138 µM) | 32 (≈ 138 µM) |
| CCn1cc(C(=O)O)c(=O)c2cc(F)c(N3CCNCC3)cc21 [Norfloxacin, norfloxacin] | 2 | 2 | 2 | 0.5 | 0.25 | 0.25 | 0.25 | 2 | 0.25 (≈ 0.783 µM) | 0.25 (≈ 0.783 µM) | 0.5 (≈ 1.57 µM) | 0.25 (≈ 0.783 µM) | 2 (≈ 6.26 µM) | 2 (≈ 6.26 µM) | 2 (≈ 6.26 µM) | 2 (≈ 6.26 µM) |
| CC1COc2c(N3CCN(C)CC3)c(F)cc3c(=O)c(C(=O)O)cn1c23 (stereo not drawn) [Ofloxacin, ofloxacin] | 2 | 2 | 2 | 0.25 | 0.25 | 0.25 | 0.25 | 2 | 0.25 (≈ 0.692 µM) | 0.25 (≈ 0.692 µM) | 0.25 (≈ 0.692 µM) | 0.25 (≈ 0.692 µM) | 2 (≈ 5.53 µM) | 2 (≈ 5.53 µM) | 2 (≈ 5.53 µM) | 2 (≈ 5.53 µM) |
